Assay results taken from ChEMBL document CHEMBL5506050, “Discovery of Oral AMP-Activated Protein Kinase Activators for Treating Hyperlipidemia” (J Med Chem, 2024).
Calls of active or inactive are those of the source. No cut-off for these calls is given here.

What was measured:
[1] = molecular target: AMP-activated protein kinase, AMPK (Homo sapiens) (UniProt P54646+O43741+P54619+Q9UGJ0+Q9Y478+Q13131+Q9UGI9); experiment: Activation of AMPK in human HepG2 cells assessed as decrease in intracellular lipid content at 10 uM incubated for 48 hrs by Oil Red O staining based analysis relative to control; format: cell-based; parameters: scale not given: the % may be the effect or the level left
[2] = molecular target: AMP-activated protein kinase, AMPK; experiment: Binding affinity to truncated AMPK (unknown origin) assessed as dissociation constant by CD analysis; format: protein-complex assay, Homo sapiens
Mus musculus [3] = experiment: Lipid lowering effect on high-fat diet-fed C57BL/6J mouse assessed as decrease in serum LDL-C level at 20 mg/kg/day, po administered via gavage measured after 7 days relative to control; format: functional; parameters: scale not given: the % may be the effect or the level left; conditions: time 7 day
Syrian golden hamster [4] = experiment: Lipid lowering effect on high-fat diet-fed golden hamster assessed as decrease in serum LDL-C level at 6 mg/kg, po qd administered via gavage measured after 4 weeks relative to control; format: functional, Mesocricetus auratus; parameters: scale not given: the % may be the effect or the level left
Syrian golden hamster [5] = experiment: Lipid lowering effect on high-fat diet-fed golden hamster assessed as decrease in serum TC level at 6 mg/kg, po qd administered via gavage measured after 4 weeks relative to control; format: functional, Mesocricetus auratus; parameters: scale not given: the % may be the effect or the level left
Syrian golden hamster [6] = experiment: Lipid lowering effect on high-fat diet-fed golden hamster assessed as decrease in serum TG level at 6 mg/kg, po qd administered via gavage measured after 4 weeks relative to control; format: functional, Mesocricetus auratus; parameters: scale not given: the % may be the effect or the level left
Syrian golden hamster [7] = experiment: Lipid lowering effect on high-fat diet-fed golden hamster assessed as decrease in serum TG level administered orally once daily via gavage measured after 4 weeks measured after 4 weeks; format: functional, organism-based; conditions: Mesocricetus auratus, dose 50-200 mg/kg, route po
Syrian golden hamster [8] = experiment: Effect on body weight gain in high-fat diet-fed golden hamster at 50 to 200 mg/kg, po qd administered via gavage measured after 4 weeks; format: functional, organism-based; conditions: Mesocricetus auratus, dose 50-200 mg/kg
Syrian golden hamster [9] = experiment: Effect on food uptake in high-fat diet-fed golden hamster at 50 to 200 mg/kg, po qd administered via gavage measured after 4 weeks; format: functional, organism-based; conditions: Mesocricetus auratus, dose 50-200 mg/kg
Syrian golden hamster [10] = experiment: Lipid lowering effect on high-fat diet-fed golden hamster assessed as decrease in AST level in liver at 50 to 200 mg/kg, po qd administered via gavage measured after 4 weeks; format: functional, organism-based; conditions: Mesocricetus auratus, dose 50-200 mg/kg
Syrian golden hamster [11] = experiment: Lipid lowering effect on high-fat diet-fed golden hamster assessed as decrease in TG level in liver at 100 to 200 mg/kg, po qd administered via gavage measured after 4 weeks; format: functional, organism-based; conditions: Mesocricetus auratus, dose 100-200 mg/kg
Syrian golden hamster [12] = experiment: Effect on liver weight in high-fat diet-fed golden hamster at 50 to 200 mg/kg, po qd administered via gavage measured after 4 weeks; format: functional, organism-based; conditions: Mesocricetus auratus, dose 50-200 mg/kg
Syrian golden hamster [13] = experiment: Lipid lowering effect on high-fat diet-fed golden hamster harboring LDLR-/- assessed as decrease in serum LDL-C level at 200 mg/kg, po qd administered via gavage measured after 8 weeks relative to control; format: functional, Mesocricetus auratus; parameters: scale not given: the % may be the effect or the level left
Syrian golden hamster [14] = experiment: Lipid lowering effect on high-fat diet-fed golden hamster harboring LDLR-/- assessed as decrease in serum TC level at 200 mg/kg, po qd administered via gavage measured after 8 weeks relative to control; format: functional, Mesocricetus auratus; parameters: scale not given: the % may be the effect or the level left
Mus musculus [15] = experiment: Downregulation of Mogat1 mRNA level in liver of high-fat diet-fed C57BL/6 mouse model at 200 mg/kg, po for 4 weeks by GO analysis; format: functional, organism-based
Mus musculus [16] = experiment: Downregulation of Pparg mRNA level in liver of high-fat diet-fed C57BL/6 mouse model at 200 mg/kg, po for 4 weeks by GO analysis; format: functional, organism-based
Mus musculus [17] = experiment: Downregulation of Dhcr7 mRNA level in liver of high-fat diet-fed C57BL/6 mouse model at 200 mg/kg, po for 4 weeks by GO analysis; format: functional, organism-based
Mus musculus [18] = experiment: Downregulation of Mvd mRNA level in liver of high-fat diet-fed C57BL/6 mouse model at 200 mg/kg, po for 4 weeks by GO analysis; format: functional, organism-based
Mus musculus [19] = experiment: Downregulation of Pcsk9 mRNA level in liver of high-fat diet-fed C57BL/6 mouse model at 200 mg/kg, po for 4 weeks by GO analysis; format: functional, organism-based
Mus musculus [20] = experiment: Upregulation of Lepr mRNA level in liver of high-fat diet-fed C57BL/6 mouse model at 200 mg/kg, po for 4 weeks by GO analysis; format: functional, organism-based
Mus musculus [21] = experiment: Downregulation of Ptafr mRNA level in liver of high-fat diet-fed C57BL/6 mouse model at 200 mg/kg, po for 4 weeks by GO analysis; format: functional, organism-based
Mus musculus [22] = experiment: Downregulation of Dnajb9 mRNA level in liver of high-fat diet-fed C57BL/6 mouse model at 200 mg/kg, po for 4 weeks by GO analysis; format: functional, organism-based
Mus musculus [23] = experiment: Upregulation of Gadd45b mRNA level in liver of high-fat diet-fed C57BL/6 mouse model at 200 mg/kg, po for 4 weeks by GO analysis; format: functional, organism-based
Mus musculus [24] = experiment: Effect on Dnajb9 mRNA level in liver of diet-induced obese C57BL/6 mouse model harboring AMPKalpha LS-/- at 200 mg/kg, po for 4 weeks by GO analysis; format: functional, organism-based
Mus musculus [25] = experiment: Effect on Cidea mRNA level in liver of diet-induced obese C57BL/6 mouse model harboring AMPKalpha LS-/- at 200 mg/kg, po for 4 weeks by GO analysis; format: functional, organism-based
Mus musculus [26] = experiment: Effect on Dhcr7 mRNA level in liver of diet-induced obese C57BL/6 mouse model harboring AMPKalpha LS-/- at 200 mg/kg, po for 4 weeks by GO analysis; format: functional, organism-based
Mus musculus [27] = experiment: Effect on Sdf2l1 mRNA level in liver of diet-induced obese C57BL/6 mouse model harboring AMPKalpha LS-/- at 200 mg/kg, po for 4 weeks by GO analysis; format: functional, organism-based
[28] = Apparent permeability across apical to basal side in human Caco-2 cells at 21 uM incubated for 2 hrs by LC-MS/MS analysis; format: ADME, cell-based
[29] = Efflux ratio of apparent permeability across basal to apical side over apical to basal side in human Caco-2 cells at 2 uM incubated for 2 hrs by LC-MS/MS analysis; format: ADME, cell-based
[30] = Efflux ratio of apparent permeability across basal to apical side over apical to basal side in human Caco-2 cells at 21 uM incubated for 2 hrs by LC-MS/MS analysis; format: ADME, cell-based
[31] = Stability in human Caco-2 cells assessed as compound remaining at 10 ug/ml measured after 2 hrs by LC-MS/MS analysis; format: ADME, cell-based; conditions: at 10 µg/mL, read-out: Stability
[32] = Stability in human liver microsomes assessed as drug metabolism at 1 uM measured after 5 mins in presence of NADPH by LC-MS/MS analysis; format: ADME, Microsome; conditions: read-out: Drug metabolism
[33] = Stability in human liver microsomes assessed as hepatic clearance at 1 uM measured for 60 mins in presence of NADPH by LC-MS/MS analysis; format: ADME, Microsome
[34] = Stability in human liver microsomes assessed as […] at 1 uM measured for 60 mins in presence of NADPH by LC-MS/MS analysis; format: ADME, Microsome; conditions: read-out: QH
[35] = molecular target: Voltage-gated inwardly rectifying potassium channel KCNH2 (Homo sapiens, UniProt Q12809); experiment: Inhibition of hERG; format: toxicity
Sequence of Voltage-gated inwardly rectifying potassium channel KCNH2 (Q12809 whole entry): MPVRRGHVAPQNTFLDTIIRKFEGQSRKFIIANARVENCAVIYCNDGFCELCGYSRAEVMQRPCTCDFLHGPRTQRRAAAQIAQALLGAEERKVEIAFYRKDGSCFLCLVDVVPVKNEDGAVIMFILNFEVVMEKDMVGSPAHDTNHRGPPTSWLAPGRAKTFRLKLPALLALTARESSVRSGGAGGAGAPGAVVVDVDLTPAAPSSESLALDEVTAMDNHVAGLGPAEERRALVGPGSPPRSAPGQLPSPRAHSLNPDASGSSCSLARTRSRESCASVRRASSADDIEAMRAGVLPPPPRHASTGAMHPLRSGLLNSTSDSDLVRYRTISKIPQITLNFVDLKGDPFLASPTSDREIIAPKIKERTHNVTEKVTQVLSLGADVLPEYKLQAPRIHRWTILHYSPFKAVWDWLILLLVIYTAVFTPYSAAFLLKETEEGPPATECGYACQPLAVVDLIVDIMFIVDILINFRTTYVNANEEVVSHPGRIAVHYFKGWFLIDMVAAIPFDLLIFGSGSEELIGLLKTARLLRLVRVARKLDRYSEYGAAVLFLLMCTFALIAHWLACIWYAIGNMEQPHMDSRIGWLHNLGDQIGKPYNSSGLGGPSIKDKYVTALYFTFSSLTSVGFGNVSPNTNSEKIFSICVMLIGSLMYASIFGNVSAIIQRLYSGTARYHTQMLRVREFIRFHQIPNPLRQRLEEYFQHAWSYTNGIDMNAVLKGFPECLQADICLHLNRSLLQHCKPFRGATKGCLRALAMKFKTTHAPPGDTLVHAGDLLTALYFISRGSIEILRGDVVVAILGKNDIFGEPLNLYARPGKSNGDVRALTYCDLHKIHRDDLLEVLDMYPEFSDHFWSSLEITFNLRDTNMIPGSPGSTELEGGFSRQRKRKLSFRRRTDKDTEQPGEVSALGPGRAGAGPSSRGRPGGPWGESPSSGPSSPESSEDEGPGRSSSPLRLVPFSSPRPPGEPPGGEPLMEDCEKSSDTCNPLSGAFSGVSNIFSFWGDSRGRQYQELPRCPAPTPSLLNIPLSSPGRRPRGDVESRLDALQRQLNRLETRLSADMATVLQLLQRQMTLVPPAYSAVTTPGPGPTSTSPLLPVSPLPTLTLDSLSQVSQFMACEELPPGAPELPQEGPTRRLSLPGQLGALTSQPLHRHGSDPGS

[36] = Acute toxicity in golden hamster assessed as animal survival at 20 g/Kg, po measured for 14 days; format: organism-based, Mesocricetus auratus; conditions: in vivo, 20000 mg/kg, 336 h, time 14 day

**Q.** With `CC(=O)OC[C@H]1O[C@@H](n2cnc3c(Nc4cccc(O)c4)ncnc32)[C@H](OC(C)=O)[C@@H]1OC(C)=O` as the compound, how does the Activity [1] read?
**A.** Its Activity is 64%.

**Q.** What about the Kd [2] of the same compound?
**A.** Its Kd is 210 nM.

**Q.** What about the Activity (Mus musculus [3]) of the same compound?
**A.** The Activity was 22.2%.

**Q.** What about the Activity (Syrian golden hamster [4]) of the same compound?
**A.** The Activity was 27.5%.

**Q.** And the Activity (Syrian golden hamster [5])?
**A.** The Activity was 24.8%.

**Q.** And the Activity (Syrian golden hamster [6])?
**A.** Its Activity is 52.8%.

**Q.** What about the Activity (Syrian golden hamster [7]) of the same compound?
**A.** Its Activity is “Dose-Dependent Effect”.

**Q.** What about the Activity (Syrian golden hamster [8]) of the same compound?
**A.** The Activity was “inactive”.

**Q.** What about the Activity (Syrian golden hamster [9]) of the same compound?
**A.** Its Activity is “inactive”.

**Q.** What about the Activity (Syrian golden hamster [10]) of the same compound?
**A.** The Activity was “Active”.

**Q.** What about the Activity (Syrian golden hamster [11]) of the same compound?
**A.** The Activity was “Active”.

**Q.** What about the Activity (Syrian golden hamster [12]) of the same compound?
**A.** The Activity was “inactive”.

**Q.** And the Activity (Syrian golden hamster [13])?
**A.** The Activity was 43.1%.

**Q.** And the Activity (Syrian golden hamster [14])?
**A.** The Activity was 19%.

**Q.** And the Activity (Mus musculus [15])?
**A.** Its Activity is “Active”.

**Q.** What about the Activity (Mus musculus [16]) of the same compound?
**A.** Its Activity is “Active”.

**Q.** And the Activity (Mus musculus [17])?
**A.** Its Activity is “Active”.

**Q.** What about the Activity (Mus musculus [18]) of the same compound?
**A.** The Activity was “Active”.

**Q.** And the Activity (Mus musculus [19])?
**A.** Its Activity is “Active”.

**Q.** And the Activity (Mus musculus [20])?
**A.** Its Activity is “Active”.

**Q.** And the Activity (Mus musculus [21])?
**A.** The Activity was “Active”.

**Q.** What about the Activity (Mus musculus [22]) of the same compound?
**A.** The Activity was “Active”.

**Q.** What about the Activity (Mus musculus [23]) of the same compound?
**A.** The Activity was “Active”.

**Q.** What about the Activity (Mus musculus [24]) of the same compound?
**A.** The Activity was “inactive”.

**Q.** What about the Activity (Mus musculus [25]) of the same compound?
**A.** Its Activity is “inactive”.

**Q.** What about the Activity (Mus musculus [26]) of the same compound?
**A.** Its Activity is “inactive”.

**Q.** What about the Activity (Mus musculus [27]) of the same compound?
**A.** Its Activity is “inactive”.

**Q.** And the Papp A→B at 2 h, 21 µM [28]?
**A.** Its Papp A→B at 2 h, 21 µM is 8 ×10⁻⁶ cm/s.

**Q.** And the efflux ratio at 2 h, 2 µM [29]?
**A.** Its efflux ratio at 2 h, 2 µM is 2.1.

**Q.** And the efflux ratio at 2 h, 21 µM [30]?
**A.** Its efflux ratio at 2 h, 21 µM is 1.9.

**Q.** And the remaining at 2 h, 10 ug/ml [31]?
**A.** Its remaining at 2 h, 10 ug/ml is 63%.

**Q.** What about the metabolised at 5 min, 1 µM [32] of the same compound?
**A.** The metabolised at 5 min, 1 µM was over 80%.

**Q.** And the CLhep predicted at 1 µM [33]?
**A.** Its CLhep predicted at 1 µM is 19.9 mL/min/kg.

**Q.** What about the hepatic extraction ratio at 1 h, 1 µM [34] of the same compound?
**A.** The hepatic extraction ratio at 1 h, 1 µM was over 0.7.

**Q.** What about the IC50 [35] of the same compound?
**A.** The IC50 was over 30000 nM.

**Q.** And the Activity [36]?
**A.** The Activity was “Non-Toxic”.
